Experimental data from ChEMBL document CHEMBL3286276, “Novel estrogen receptor (ER) modulators containing various hydrophobic bent-core structures” (Bioorg Med Chem, 2014).

Experiments:
[1] = biological target: T1, Estrogen receptor (Homo sapiens) (UniProt P03372); test: Displacement of [6,7-3H]17beta-estradiol from human recombinant estrogen receptor-alpha after 18 hrs by liquid scintillation counting analysis
T1 sequence (whole entry): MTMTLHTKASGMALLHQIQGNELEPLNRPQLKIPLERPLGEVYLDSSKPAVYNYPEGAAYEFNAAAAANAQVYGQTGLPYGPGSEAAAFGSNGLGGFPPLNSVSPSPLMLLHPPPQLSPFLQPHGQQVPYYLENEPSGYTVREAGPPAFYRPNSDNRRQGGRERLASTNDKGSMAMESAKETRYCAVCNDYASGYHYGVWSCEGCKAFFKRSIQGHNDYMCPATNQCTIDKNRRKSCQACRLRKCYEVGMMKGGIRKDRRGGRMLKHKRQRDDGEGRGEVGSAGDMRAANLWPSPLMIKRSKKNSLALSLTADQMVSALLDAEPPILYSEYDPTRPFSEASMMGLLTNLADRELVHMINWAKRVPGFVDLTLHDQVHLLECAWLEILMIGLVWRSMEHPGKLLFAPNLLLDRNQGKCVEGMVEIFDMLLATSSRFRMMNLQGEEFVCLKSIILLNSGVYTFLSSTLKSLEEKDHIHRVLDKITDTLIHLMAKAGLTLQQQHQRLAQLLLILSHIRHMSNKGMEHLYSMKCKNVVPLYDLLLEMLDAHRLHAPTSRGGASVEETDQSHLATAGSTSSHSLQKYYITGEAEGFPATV

[2] = biological target: T1, Estrogen receptor (Homo sapiens); test: Agonist activity at estrogen receptor in human MCF7 cells assessed as induction of cell proliferation at 1 x 10^-13 to 1 x 10^-5 M after 5 days by WST-8 assay relative to estradiol; type: cell-based

inhibition [1]: Dose-dependent effect
Emax [2]: 17%
Compound: CN(C)CCOc1ccc(C23CC4CC(CC(c5ccc(O)cc5)(C4)C2)C3)cc1
